Entries after “also recorded” stand apart in the source; their conditions may differ.
Assays:
[1] = Lyso-Gb1 level in blood (dried blood spots, LC/MRM-MS) upon continuous subcutaneous administration; format: in vivo, C57BL/6JRj mice
Protocol: (§1) Animal experimental procedures were carried out at Pharmacelsus GmbH, Saarbrücken, Germany. Adult male C57BL/6JRj mice (10 weeks old, purchased from Janvier Labs, France) were housed in a temperature-controlled room (20-24° C.) and maintained in a 12 h light/12 h dark cycle. Food (Ssniff® R/M-H, 10 mm) and water were provided ad libitum.
All experimental procedures were approved by and conducted in accordance with the regulations of the local Animal Welfare authorities. The lyso-Gb1 stock solution was prepared in DMSO and propylene glycol at 37° C. with ultrasonic bath treatment for 10 min. Subcutaneous administration of lyso-Gb1 (Matreya LLC, USA) was achieved by the use of ALZET pumps implanted in the back of their necks and set to a flow rate of 2.64 μl/day in order to obtain a daily dosage of 10 mg lyso-Gb1/kg body weight. The pumps were loaded with the stock solution and primed prior to implantation according to the manufacturer's instructions.
(§2) Blood sampling was carried out using Li-heparine blood obtained from the lateral tail vein. At each sampling time point 2 aliquots of 20 μl were transferred to dried blood spot filter cards (Centogene AG, Rostock, Germany). After the last sampling time point the mice were sacrificed by inhalation of an overdose of isoflurane and organs were removed, frozen and collected for future examinations. Where applicable, organs were intersected. Half of the organ was immediately frozen in liquid nitrogen. The other half was formalin-fixed and paraffin-embedded for histologic analysis (Histalim, Montpellier, France).
3 punches of 3.2 mm in diameter were cut using a DBS puncher (Perkin Elmer LAS, Germany) and placed in a 2.2 ml round bottom tube (Eppendorf, Germany). 50 μl extraction solution (DMSO: water, 1:1) and 100 μI internal standard solution with the standard being dissolved in ethanol were added on top of the paper punches. Samples were mixed for 30 seconds and placed in an incubator (Heidolph, Schwabach, Germany) for 30 minutes at 37° C. under agitation at 700 rpm. […]
LC-MRM-MS analyses of the lyso-Gb1 for both DBS and organ extracts were performed using a Waters Acquity UPLC (Waters, UK) coupled with an ABSciex 5500 TripleQuad mass spectrometer (ABSciex, Darmstadt, Germany). […] The following MRM transitions were monitored: 624.3-282.2 for the internal standard (with DP of 30V, CE of 38 V and CXP of 10 V) and 462.3→282.2 for lyso-Gb1 (with DP of 28V, CE of 30 V and CXP of 10 V). MRM-MS analyses were performed in positive ion mode using the following parameters: CUR gas 40 psi, IS voltage 5.5 kV, CAD 8 psi, cone temperature 500° C., GS 1 45 psi, GS2 60 psi, EP 10 V. For all batches analyzed a standard curve was measured using 7 dilutions of lyso-Gb1 in ethanol (concentrations in ng/ml: 0; 5; 10; 50; 100; 200; 1000). […]

[2] = Lyso-Gb1 determination in organs (LC/MRM-MS); format: in vivo, C57BL/6JRj mice
Protocol: After extraction from the animal, the organs were immediately deep-frozen in liquid nitrogen. The samples were lyophilized (Alpha 2-4 LSC, Christ, Osterode am Harz, GER) and powdered with mortar and pistil. Fractions of 2 to 5 mg powder were established in round bottom tubes. On top of the powder, 50 μl per mg powder extraction solution was added and the sample was incubated for 5 minutes at 37° C. under agitation. Subsequently, the samples were frozen in liquid nitrogen for 30 seconds and sonicated with boost function for 5 minutes. The incubation, freezing and sonication steps were repeated 6 times. At the end the mixtures were vortexed and aliquots of 25 μl suspension were used for the lyso-Gb1 determination. Each sample was supplemented with 100 μl Internal Standard (lyso-Gb2, 200 ng/ml) and 250 μl ethanol. The samples were cooled at 4° C. for 1 h to precipitate the membrane proteins and spun in a benchtop centrifuge for 3 minutes at 14.5 krpm. The volume of each sample was quantitatively transferred to a 96-well filter plate and further processed as described above.
LC-MRM-MS analyses of the lyso-Gb1 for both DBS and organ extracts were performed using a Waters Acquity UPLC (Waters, UK) coupled with an ABSciex 5500 TripleQuad mass spectrometer (ABSciex, Darmstadt, Germany). Chromatographic run was performed on a C8 column with pore size of […] (ACE columns, Germany) using a flow rate of 0.9 ml/min preheated at 60° C. The 10 μl extract were injected on the column and the compounds were eluted using a linear gradient from 40% A (50 mM formic acid in water) to 100% B (50 mM formic acid in acetone:acetonitrile vol. 1:1). Upstream from UPLC a 3:1 flow splitter was added. The following MRM transitions were monitored: 624.3-282.2 for the internal standard (with DP of 30V, CE of 38 V and CXP of 10 V) and 462.3→282.2 for lyso-Gb1 (with DP of 28V, CE of 30 V and CXP of 10 V). MRM-MS analyses were performed in positive ion mode using the following parameters: CUR gas 40 psi, IS voltage 5.5 kV, CAD 8 psi, cone temperature 500° C., GS 1 45 psi, GS2 60 psi, EP 10 V. For all batches analyzed a standard curve was measured using 7 dilutions of lyso-Gb1 in ethanol (concentrations in ng/ml: 0; 5; 10; 50; 100; 200; 1000).
After 4 weeks from treatment start the organs of the mice were subjected to lyso-Gb1 analysis.

[3] = Lyso-Gb1 in 24 hr urine (LC/MRM-MS); format: in vivo, C57BL/6JRj mice; conditions: 6 weeks after treatment start
Protocol: 25 μL urine aliquots were added to 100 μL of internal standard and 250 μL ethanol. The samples were cooled to 4° C. for 1 h to precipitate the urine proteins, after which they were spun in a benchtop centrifuge for 3 minutes at 14,500 rpm. The volume of each sample was quantitatively transferred to a 96-well plate, and further processed as described above.
LC-MRM-MS analyses of the lyso-Gb1 for both DBS and organ extracts were performed using a Waters Acquity UPLC (Waters, UK) coupled with an ABSciex 5500 TripleQuad mass spectrometer (ABSciex, Darmstadt, Germany). Chromatographic run was performed on a C8 column with pore size of […] (ACE columns, Germany) using a flow rate of 0.9 ml/min preheated at 60° C. […] The following MRM transitions were monitored: 624.3-282.2 for the internal standard (with DP of 30V, CE of 38 V and CXP of 10 V) and 462.3→282.2 for lyso-Gb1 (with DP of 28V, CE of 30 V and CXP of 10 V). MRM-MS analyses were performed in positive ion mode using the following parameters: CUR gas 40 psi, IS voltage 5.5 kV, CAD 8 psi, cone temperature 500° C., GS 1 45 psi, GS2 60 psi, EP 10 V. For all batches analyzed a standard curve was measured using 7 dilutions of lyso-Gb1 in ethanol (concentrations in ng/ml: 0; 5; 10; 50; 100; 200; 1000).

[4] = Blood count analysis for systemic damage; format: in vivo, C57BL/6JRj mice
Protocol: Mice were exsanguinated via the retrobulbar venous plexus under isoflurane anesthesia before being sacrificed by overdose inhalation. 200 μL EDTA samples of whole blood were drawn from each animal to analyze […], leukocyte count, erythrocyte count, hemoglobin (Hb), hematocrit (PCV=packed cell volume, Hct), mean cell volume (MCV), mean cell Hb (MCH), mean cell Hb concentration. (MCHC) and platelet count (PLT) (IDEXX Bioresearch, Ludwigsburg, Germany).
3.1 It was tested whether the high lyso-Gb1 levels caused systemic damage to the animals. Such systemic damage was assessed by blood count analysis.

Organ weight analysis = format: in vivo, C57BL/6JRj mice
Protocol: as §2
3.2 As anemia is a frequent result of enlarged spleen, another hallmark of Gaucher disease, an organ weight analysis, a Western blot analysis and size and color analysis of the spleen was carried out. The results thereof are shown in FIG. 4A, FIG. 4B and FIG. 4C.

F4/80 and CD68 = test: Western blot of inflammatory tissue markers F4/80 and CD68 in spleen and liver; format: in vivo, C57BL/6JRj mice
Protocol: Livers and spleens were homogenized in RIPA buffer containing proteinase and phosphatase inhibitor (Roche, Mannheim, GER). Lysates were centrifuged at 15,000 g, 4° C. for 15 min to remove insoluble pellet, and supernatant was collected. Protein concentration was measured using Pierce BCA Protein Assay Kit (Thermo Fisher Scientific, Waltham, Mass.). Typically, […] protein was loaded for electrophoresis on a 4%-15% precast Tris-glycine gradient gel (BioRad, Mannheim, GER). The protein was subsequently transferred to a nitrocellulose membrane by semidry transfer apparatus (BioRad, Munich, GER) for immunodetection analysis. The target proteins were detected by rat anti F4/80 (1:500, Biolegend, San Diego, Calif.), rat anti-CD68 [FA-11] (1:200 abcam, Cambridge, UK) mouse anti GAPDH (1:10,000, abcam, Cambridge, UK), each in TBST supplemented with 5% skim milk powder (Sigma Aldrich, Munich, GER). Fluorescent conjugate secondary antibodies were applied for the detection with a Li-Cor Odyssey imaging system (Bad Homburg, GER).
In order to investigate the molecular changes of both spleen and liver in terms of tissue inflammation macrophagic marker proteins F4/80 and CD68 were analysed.

[5] = Histopathological evaluation (H&E) of spleen, liver and femur; format: in vivo, C57BL/6JRj mice; conditions: data not shown
Protocol: After removal, organs were fixed in formalin for 24 h and transferred into 70% ethanol. To ensure a non-biased comparison the same parts of organs were analysed by HISTALIM (Montpellier, France). The samples were processed on the Peloris automaton (Leica, Wetzlar, Germany) according to the 4 h program validated for mouse organs. The samples were embedded in paraffin wax according to HISTALIM procedures. For the liver, spleen and femur samples, a section (3-5 μm thickness) was prepared and deposited preferentially on Superfrost+slide (to ensure tissue adhesion) to be stained according to a validated hematoxylin/eosin (H&E) protocol. All the slides were digitalised with the Nanozoomer scanner (Hamamatsu Photonics, Hamamatsu, Japan) in conditions bright field conditions, with the objective×20, without Z stack. Slides were examined by a senior histopathologist to assess the toxicological effects of lyso-Gb1 on the tested mice.

[6] = test system: CD68 and F4/80 positive cells; test: Immunohistochemistry of spleen sections (anti-CD68, anti-F4/80); format: in vivo, C57BL/6JRj mice
Protocol: For immunohistochemistry 5 μm paraffin sections of the spleens of 8-week treated mice were subjected to rat anti-CD68 clone FA-11 (1:100, Bio-Rad Laboratories, Raleigh, N.C., USA) and rat anti-mouse F4/80 Cl:A3-1 (1:100, BioLegend, San Diego, Calif., USA). Sections were then deparaffinised, rehydrated and pre-treated in the microwaves in 0.1 M citrate buffer (5 min 850 W and 5 min 340 W) followed by consecutive incubation with 3% H2O2 in PBS to block endogenous peroxidases for 30 min, then 3% bovine serum albumin with 1.5% normal goat serum (NGS) in PBS for 1 h to block nonspecific epitopes. Subsequently, sections were exposed to the primary antibody in 3% NGS/PBS overnight at 4° C. Depending on the primary antibody and after washing in PBS, the sections were sequentially incubated for 1 h with the secondary anti-rat or anti-mouse IgG (1:200; Vector, Burlingame, Calif., USA), streptavidin-biotin-complex (ABC) reagent for 1 h (Vectastain-Elite; Vector, Burlingame, Calif., USA) and then finally visualised with 3,-3,-diaminobenzidine (DAB, Sigma, Munich, Germany), which was activated with H2O2. Sections were counterstained with hematoxylin, dehydrated, mounted with DePeX and coverslipped.

TNF-α and IL-1β = test: Cytokine analysis in blood (ProcartaPlex Multiplex Immunoassay); format: in vivo, mice
Protocol: The ProcartaPlex® Multiplex Immunoassay (ebioscience, San Diego, Calif.) was carried out following the instructions of the provider. Differences between the animal groups were obtained using automated MAGPIX® analysis device software (Luminex, Austin, Tex.) including quality control criteria.

[7] = General health, body weight and behaviour during treatment; format: in vivo, C57BL/6JRj mice
Protocol: as §1
Ten weeks old C57BL/6JRj mice were subcutaneously treated with high doses (10 mg*kg−1*day−1) of lyso-Gb1 for a period of up to 84 days (12 weeks).

Compound: CCCCCCCCCCCCC/C=C/[C@@H](O)[C@@H](N)CO[C@@H]1O[C@H](CO)[C@@H](O)[C@H](O)[C@H]1O [lyso-Gb1, glucosylsphingosine]
- lyso-Gb1 levels in blood ([1]; 24 hrs after treatment start (data not shown)): strongly elevated
- increase of blood lyso-Gb1 level compared to the vehicle-treated mice ([1]; after 4, 8 and 12 weeks, s.c. 10 mg/kg/day): more than 500 fold
- lyso-Gb1 level in blood ([1]; after 4, 8 and 12 weeks, s.c. osmotic pump, 10 mg lyso-Gb1/kg body weight daily): 700 to 900 ng/mL
- concentration at 4 weeks ([1]; male, C57BL/6JRj, mouse, whole blood (dried blood spots), sc, 10 mg/kg/day, 4 weeks after begin of treatment, s.c. 10 mg*kg−1*day−1): > 500 ng/mL
- organ with highest lyso-Gb1 levels ([2]; 4 weeks from treatment start): kidney and liver
- lyso-Gb1 levels in peripheral organs (heart, kidney, liver, spleen) compared to control animals ([2]; 4 weeks from treatment start, 10 mg*kg^−1*day^−1): strongly elevated
- increase of brain lyso-Gb1 ([2]; 4 weeks from treatment start, attributed to carryover of blood in tissue capillaries): 2 fold
- crossing of the blood brain barrier ([2]; concluded from negligible increase in brain lyso-Gb1): not able to cross the blood brain barrier
- calculated excretion rate of lyso-Gb1 in urine [3]: 0.6 ng/min
- Hb (hemoglobin) values ([4]; 4, 8 and 12 weeks, 2× SD below the baseline value at each time point): mild anemia; also recorded: mild anaemia
- Hct (haematocrit) values ([4]; differed at 4 and 8 weeks after treatment initiation): significantly differed; also recorded: lowered
- thrombocytopenia / white blood cell abnormalities ([4]; up to 12 weeks treatment): no thrombocytopenia or abnormalities in white blood cells
- liver weight versus controls (Organ weight analysis; 8 and 12 weeks): not statistically significantly different; also recorded: not statistically distinct from control animals
- spleen weight versus controls (Organ weight analysis; 8 and 12 weeks from treatment initiation): enlarged
- liver size in subsequent experiment (Organ weight analysis; lyso-Gb1 treatment started earlier (P20), data not shown): marked enlargement of the liver
- size of heart, lung and kidney (Organ weight analysis; mouse, in vivo): normal in size
- F4/80 and CD68 protein levels in liver (Western blot) (F4/80 and CD68; liver): only mild changes
- F4/80 and CD68 protein levels in spleen (Western blot) (F4/80 and CD68; spleen): pronounced increase; also recorded: elevated
- H&E histological stain of spleen, liver and femur, vehicle vs lyso-Gb1 treated [5]: did not reveal significant abnormalities
- number of CD68 and F4/80 positive cells in spleen sections in comparison to vehicle controls ([6]; paraffin sections from spleen): marked increase
- CD68-immunoreactivity in spleen compared to vehicle controls ([6]; spleens of 8-week treated mice): strong increase
- F4/80 immunoreactivity in spleen compared to vehicle controls ([6]; spleens of 8-week treated mice): increased
- TNF-α and IL-1β in the blood (TNF-α and IL-1β): slight elevation
- upregulation of most investigated cytokines (TNF-α and IL-1β): did not find significant upregulation
- behaviour ([7]; mouse, in vivo): no behavioral abnormalities
- body weight / health status ([7]; throughout the experimental phase (up to 12 weeks)): did not lose weight
